Patent publication US20210267201A1, “HERBICIDAL MIXTURES COMPRISING ISOXAFLUTOLE, DIMETHENAMID OR DIMETHENAMID-P AND AN IMIDAZOLINONE HERBICIDE; AND THEIR USE IN SOYBEAN AND COTTON CULTURES” (BASF SE, priority 2018, published 2021)

System: AVEFA (Avena fatua, wild oat)
Assay: greenhouse experiment: herbicidal action, scale from 0 to 100, synergism by Colby's equation
Format: in vivo
Conditions: scale 0 to 100, test period 20 days
Procedure: However, the weed control afforded by the compounds, mixtures or compositions is not limited to these species. The analysis of synergism or antagonism between the mixtures or compositions is determined using Colby's equation.
Synergism can be described as an interaction where the combined effect of two or more compounds is greater than the sum of the individual effects of each of the compounds. The presence of a synergistic effect in terms of percent control, between two mixing partners (X and Y) can be calculated using the Colby equation (Colby, S. R., 1967, Calculating Synergistic and Antagonistic Responses in Herbicide Combinations, Weeds, 15, 21-22):
When the observed combined control effect is greater than the expected (calculated) combined control effect (E), then the combined effect is synergistic.
The culture containers used were plastic flowerpots containing loamy sand with approximately 3.0% of humus as the substrate. The seeds of the test plants were sown separately for each species. For pre-emergence treatment, the active ingredients, which had been suspended or emulsified in water, were applied directly after sowing by means of finely distributing nozzles. […] During this time, the plants were tended, and their response to the individual treatments was evaluated. […]

## CS(=O)(=O)c1cc(C(F)(F)F)ccc1C(=O)c1cnoc1C1CC1 [Isoxaflutole, isoxaflutole]
Isoxaflutole 12.5 g/ha alone
  Herbicidal action against AVEFA, Found: 0
Isoxaflutole 25 g/ha alone
  Herbicidal action against AVEFA, Found: 0
